The compounds below were run on VEEV TrD infected cells, viral cytopathic effect inhibition (assay: VEEV TrD cytopathic effect inhibition, confirmation, cell-based, Trinidad donkey strain, set 2 (AID 651874)).

In order of rising IC50:
1. CCN1CCN(C)CC1=Nc1ccc([N+](=O)[O-])cc1C(=O)Nc1ccccc1  34 nM
2. CN1CCN(C)C(=Nc2ccc([N+](=O)[O-])cc2C(=O)Nc2ccccc2)C1  40.1 nM
3. COc1ccc(NC(=O)c2cc([N+](=O)[O-])ccc2N=C2CN(C)CCN2C)cc1  45 nM
4. O=c1c2cc([N+](=O)[O-])ccc2nc(CN2CCNCC2)n1-c1ccccc1  86 nM
5. COc1ccc(-n2c(CN3CCNCC3)nc3ccc([N+](=O)[O-])cc3c2=O)cc1  96.6 nM
6. CN1CCN(C)C(=Nc2cc(Cl)c(C#N)cc2C(=O)Nc2ccccc2)C1  113 nM
7. CN1CCN(Cc2nc3ccc([N+](=O)[O-])cc3c(=O)n2-c2ccccc2F)CC1  139 nM
8. O=c1c2cc([N+](=O)[O-])ccc2nc(CN2CCNCC2)n1-c1ccccc1F  148 nM
9. CN1CCN(C)C(=Nc2ccc([N+](=O)[O-])cc2C(=O)Nc2ccccc2F)C1  158 nM
10. CCN1CCN(Cc2nc3ccc([N+](=O)[O-])cc3c(=O)n2-c2ccccc2)CC1  241 nM
11. CCN1CCN(Cc2nc3ccc([N+](=O)[O-])cc3c(=O)n2-c2cccc(F)c2)CC1  278 nM
12. CN1CCN(C)C(=Nc2ccc(C#N)cc2C(=O)Nc2ccccc2)C1  319 nM
13. CNCCCN(C)Cc1nc2ccc([N+](=O)[O-])cc2c(=O)n1-c1ccccc1  405 nM
14. CCN1CCN(Cc2nc3ccc([N+](=O)[O-])cc3c(=O)n2-c2ccccc2F)CC1  557 nM
15. CCN1CCN(Cc2nc3ccc([N+](=O)[O-])cc3c(=O)n2-c2ccc(F)cc2)CC1  605 nM
16. CN1CCN(C)C(=Nc2ccc(C#N)cc2C(=O)Nc2cccc(F)c2)C1  823 nM
17. O=c1c2cc([N+](=O)[O-])ccc2nc(CN2CCNCC2)n1-c1ccsc1  905 nM
18. CCN1CCN(Cc2nc3ccc(C#N)cc3c(=O)n2-c2ccccc2)CC1  1090 nM
19. CCN1CCN(Cc2nc3ncc([N+](=O)[O-])cc3c(=O)n2-c2ccccc2)CC1  3080 nM
20. COc1cccc(-n2c(CN3CCNCC3)nc3ccc([N+](=O)[O-])cc3c2=O)c1  5630 nM

— PubChem BioAssay AID651874 (Southern Research Specialized Biocontainment Screening …, 2012)
